Reference: paper PMC6631223, “Chain-Branched Polyhydroxylated Octahydro-1H-Indoles as Potential Leads against Lysosomal Storage Diseases” (Pharmaceuticals, 2019)

Key:
Format in all cases: biochemical
α-Glucosidase (yeast) = biological target: T1, α-Glucosidase (yeast) (Saccharomyces cerevisiae, UniProt P53341); assay: Glycosidase inhibition: α-glucosidase (yeast); details: α-glucosidase, yeast; 1000 μM
T1 construct: purchased Sigma-Aldrich Co
From the text: (§1) The enzymes α-glucosidase (from yeast, rice), β-glucosidase (from almonds, bovine liver), α-galactosidase (from coffee beans), β-galactosidase (from bovine liver), α-mannosidase (from jack beans), β-mannosidase (from snails), α-L-fucosidase (from bovine kidney), α-L-rhamnosidase (from Penicillium decumbens), β-glucuronidases (from Escherichia coli), α,α-trehalase (from porcine kidney), amyloglucosidase (from Aspergillus niger), p-nitrophenyl glycosides, and various disaccharides were purchased from Sigma-Aldrich Co. Brush border membranes were prepared from the rat small intestine according to the method of Kessler et al., and were assayed at pH 6.8 for rat intestinal maltase using maltose. For rat intestinal glucosidases and porcine kidney trehalase activities, the reaction mixture (0.2 mL) contained 25 mM substrate and the appropriate amount of enzyme, and the incubations were performed for 10 min at 37 °C. The reaction was stopped by heating at 100 °C for 3 min. After centrifugation (600 g; 10 min), 0.035 mL of the resulting reaction mixture were added to 2.1 mL of the Glucose CII-test Wako (Wako Pure Chemical Ind., Osaka, Japan). The absorbance at 505 nm was measured to determine the amount of the released D-glucose. Other glycosidase activities were determined using an appropriate p-nitrophenyl glycoside as substrate at the optimum pH of each enzyme. The reaction mixture (0.2 mL) contained 2 mM of the substrate and the appropriate amount of enzyme. The reaction was stopped by adding 0.4 mL of 400 mM Na2CO3. The released p-nitrophenol was measured spectrometrically at 400 nm.

[1] = biological target: T2, α,α-Trehalase (porcine kidney) (Sus scrofa, UniProt I3LIR5); assay: Glycosidase inhibition: α,α-trehalase (porcine kidney); details: read-out: inhibition % at 1000 μM
T2 construct: purchased Sigma-Aldrich Co; host or cells: porcine kidney
T2 sequence (I3LIR5 24-583): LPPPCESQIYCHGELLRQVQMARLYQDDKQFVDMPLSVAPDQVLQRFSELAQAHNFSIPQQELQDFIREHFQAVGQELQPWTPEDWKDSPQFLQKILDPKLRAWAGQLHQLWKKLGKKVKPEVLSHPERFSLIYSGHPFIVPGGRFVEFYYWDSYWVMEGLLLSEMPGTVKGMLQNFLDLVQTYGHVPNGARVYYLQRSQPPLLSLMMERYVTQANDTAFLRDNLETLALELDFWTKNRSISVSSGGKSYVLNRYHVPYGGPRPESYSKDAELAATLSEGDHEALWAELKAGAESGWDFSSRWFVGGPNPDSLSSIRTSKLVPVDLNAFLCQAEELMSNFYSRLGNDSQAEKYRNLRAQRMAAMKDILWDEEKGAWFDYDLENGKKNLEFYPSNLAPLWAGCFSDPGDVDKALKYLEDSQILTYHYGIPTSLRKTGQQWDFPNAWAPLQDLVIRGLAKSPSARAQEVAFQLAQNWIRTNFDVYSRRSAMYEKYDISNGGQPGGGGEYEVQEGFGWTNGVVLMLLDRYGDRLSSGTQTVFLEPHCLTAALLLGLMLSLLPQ
From the text: as §1, with “After centrifugation (600 g; 10 min), 0.035 mL of the resulting reaction mixture were added to 2.1 mL of the Glucose CII-test Wako (Wako Pure Chemical Ind., Osaka, Japan).” left out, “The reaction mixture (0.2 mL) contained 2 mM of the substrate and the appropriate amount of enzyme. The reaction was stopped by adding 0.4 mL of 400 mM Na2CO3.” left out

[2] = biological target: T3, β-Galactosidase (bovine liver) (Bos taurus, UniProt Q58D55); assay: Glycosidase inhibition: β-galactosidase (bovine liver)
T3 sequence (Q58D55 28-653): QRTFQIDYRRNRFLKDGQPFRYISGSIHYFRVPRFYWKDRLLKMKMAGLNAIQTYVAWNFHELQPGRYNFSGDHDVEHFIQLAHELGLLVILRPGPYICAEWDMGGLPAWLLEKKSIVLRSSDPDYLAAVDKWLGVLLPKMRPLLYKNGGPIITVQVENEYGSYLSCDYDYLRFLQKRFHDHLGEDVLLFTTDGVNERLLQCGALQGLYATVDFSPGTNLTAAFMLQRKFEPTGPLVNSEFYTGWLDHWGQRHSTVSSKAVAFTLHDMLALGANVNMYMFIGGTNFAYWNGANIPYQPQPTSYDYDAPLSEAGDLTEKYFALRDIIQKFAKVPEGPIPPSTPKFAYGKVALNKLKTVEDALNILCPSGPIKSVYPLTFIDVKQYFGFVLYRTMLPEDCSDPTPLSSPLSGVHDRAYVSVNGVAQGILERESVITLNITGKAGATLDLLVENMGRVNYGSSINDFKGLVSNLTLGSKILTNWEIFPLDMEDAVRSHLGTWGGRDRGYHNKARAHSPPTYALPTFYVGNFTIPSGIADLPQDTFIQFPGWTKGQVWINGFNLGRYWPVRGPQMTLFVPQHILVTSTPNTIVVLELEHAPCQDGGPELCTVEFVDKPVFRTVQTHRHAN
From the text: as §1, with “After centrifugation (600 g; 10 min), 0.035 mL of the resulting reaction mixture were added to 2.1 mL of the Glucose CII-test Wako (Wako Pure Chemical Ind., Osaka, Japan).” left out, “The reaction mixture (0.2 mL) contained 2 mM of the substrate and the appropriate amount of enzyme. The reaction was stopped by adding 0.4 mL of 400 mM Na2CO3.” left out

T1 sequence (P53341 whole entry): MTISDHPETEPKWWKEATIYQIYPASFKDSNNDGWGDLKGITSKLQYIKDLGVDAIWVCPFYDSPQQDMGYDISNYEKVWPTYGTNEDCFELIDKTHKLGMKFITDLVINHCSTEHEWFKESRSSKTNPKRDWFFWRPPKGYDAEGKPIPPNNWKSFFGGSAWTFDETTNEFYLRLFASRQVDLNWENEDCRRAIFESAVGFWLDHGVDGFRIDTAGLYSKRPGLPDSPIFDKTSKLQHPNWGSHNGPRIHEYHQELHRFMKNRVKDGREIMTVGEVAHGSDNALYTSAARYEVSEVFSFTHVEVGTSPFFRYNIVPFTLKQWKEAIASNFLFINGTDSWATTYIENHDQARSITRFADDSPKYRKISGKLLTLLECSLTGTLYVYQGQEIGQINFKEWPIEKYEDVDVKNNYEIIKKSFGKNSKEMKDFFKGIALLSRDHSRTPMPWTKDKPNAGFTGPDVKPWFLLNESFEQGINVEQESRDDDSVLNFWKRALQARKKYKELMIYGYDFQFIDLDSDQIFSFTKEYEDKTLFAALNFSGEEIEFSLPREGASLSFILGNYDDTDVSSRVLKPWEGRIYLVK

Compound	inhibition at 1000 µM (α-Glucosidase (yeast))	inhibition at 1000 µM [1]	inhibition at 1000 µM [2]
CC[C@@H]1CN[C@H]2C[C@@H](O)[C@H](O)[C@@H](O)[C@H]12 [Compound 10, (3S,3aR,4S,5S,6R,7aS)-3-Ethyloctahydro-1H-indole-4,5,6-triol]	16%	0%	< 50%
CC[C@H]1CN[C@H]2C[C@@H](O)[C@H](O)[C@@H](O)[C@H]12 [Compound 13, (3R,3aR,4S,5S,6R,7aS)-3-ethyloctahydro-1H-indole-4,5,6-triol]	19.5%	0%	< 50%
